Experimental data taken from ChEMBL document CHEMBL6153110, “Peptide Double-Stapling and Arginine N-Glycosylation Triggered the Development of Therapeutic Antimicrobial Peptides Capable of Killing Drug-Resistant Bacteria in Mice” (J Med Chem, 2025).
≈ marks a conversion by molar mass, not a printed value. Calls of active or inactive are those of the source. The rule behind the calls is not given here. Residues, ends and D or L forms follow the SMILES beside them.

Legend:
Staphylococcus aureus [1] = experiment: In vivo antibacterial activity against methicillin-resistant Staphylococcus aureus ATCC 43300 infected locally in full thickness skin wound mouse model assessed as reduction in bacterial load in skin wound at 1 mg/kg treated with absorbable gelatin sponge measured after 7 days; format: functional, organism-based; conditions: time 7.0 day
Staphylococcus aureus [2] = experiment: In vivo antibacterial activity against methicillin-resistant Staphylococcus aureus ATCC 43300 infected locally in full thickness skin wound mouse model assessed as reduction in bacterial load in skin wound at 4 mg/kg treated with absorbable gelatin sponge measured after 3 days; format: functional, organism-based; conditions: time 3.0 day
Staphylococcus aureus [3] = experiment: In vivo antibacterial activity against methicillin-resistant Staphylococcus aureus ATCC 43300 infected locally in full thickness skin wound mouse model assessed as reduction in bacterial load in skin wound at 4 mg/kg treated with absorbable gelatin sponge measured after 7 days; format: functional, organism-based; conditions: time 7.0 day
Cell membrane [4] = experiment: Induction of cell membrane damage in methicillin-resistant Staphylococcus aureus ATCC 43300 assessed as significant plasma membrane rupture, […], and cytoplasmic leakage at MIC measured after 1 hr incubation by Transmission electron microscopy; format: subcellular
Staphylococcus aureus [5] = experiment: Antimicrobial activity against methicillin-resistant Staphylococcus aureus ATCC 43300 assessed as growth inhibition measured after 8 hrs incubation by standard broth dilution assay; format: functional
Cell membrane [6] = experiment: Binding affinity to Klebsiella pneumoniae ATCC 13883 cell membrane treated with FITC labelled peptides at MIC measured after 1.5 hr by CLSM imaging analysis; format: subcellular
Staphylococcus aureus [7] = experiment: In vivo antibacterial activity against methicillin-resistant Staphylococcus aureus ATCC 43300 infected locally in full thickness skin wound mouse model assessed as reduction in bacterial load in skin wound at 1 mg/kg treated with absorbable gelatin sponge measured after 3 days; format: functional, organism-based; conditions: time 3.0 day
Cell membrane [8] = experiment: Binding affinity to methicillin-resistant Staphylococcus aureus ATCC 43300 cell membrane treated with FITC labelled peptides at MIC measured after 1.5 hr by CLSM imaging analysis; format: subcellular
[9] = Toxicity in mouse assessed as fasciculus necrosis at 40 mg/kg, sc by H and E staining based assay; format: organism-based; conditions: in vivo
Klebsiella pneumoniae [10] = experiment: In vivo antibacterial activity against Klebsiella pneumoniae ATCC 13883 induced bacterial pneumonia mouse model assessed as reduction in bacterial infection induced weight loss at 1 mg/kg, injected into trachea after 24 hrs of infection measured after 3 to 7 days; format: functional, organism-based
Klebsiella pneumoniae [11] = experiment: In vivo antibacterial activity against Klebsiella pneumoniae ATCC 13883 induced bacterial pneumonia mouse model assessed as reduction in bacterial infection induced weight loss at 4 mg/kg, injected into trachea after 24 hrs of infection measured after 3 to 7 days; format: functional, organism-based
Cell membrane [12] = experiment: Induction of cell membrane damage in Klebsiella pneumoniae ATCC 13883 assessed as increase in red fluorescence at MIC measured after 1 hr incubation by PI based confocal microscopy; format: subcellular
Cell membrane [13] = experiment: Induction of cell membrane damage in Klebsiella pneumoniae ATCC 13883 assessed as significant plasma membrane rupture, cytosolic membrane and outer membrane separation, and cytoplasmic leakage at MIC measured after 1 hr incubation by Transmission electron microscopy; format: subcellular
Staphylococcus aureus [14] = experiment: Antibiofilm activity in methicillin-resistant Staphylococcus aureus ATCC 43300 assessed as reduction in biofilm formation at 37.2 ug/ml measured after 24 hrs by crystal violet staining based assay relative to control; format: functional; design: scale not given: the % may be the effect or the level left; conditions: dose 37.2 µg/ml
Klebsiella pneumoniae [15] = experiment: Antibiofilm activity in Klebsiella pneumoniae ATCC 13883 assessed as reduction in biofilm formation at 150 ug/ml measured after 24 hrs by crystal violet staining based assay relative to control; format: functional; design: scale not given: the % may be the effect or the level left; conditions: dose 150 µg/ml
Pseudomonas aeruginosa = experiment: Antimicrobial activity against Pseudomonas aeruginosa ATCC 27853 assessed as growth inhibition measured after 8 hrs incubation by standard broth dilution assay; format: functional
Staphylococcus aureus [16] = experiment: In vivo antibacterial activity against methicillin-resistant Staphylococcus aureus ATCC 43300 infected locally in full thickness skin wound mouse model assessed as reduced skin damage by promoting wound healing at 4 mg/kg treated with absorbable gelatin sponge measured on early healing stage; format: functional, organism-based; conditions: route id
Cell membrane [17] = experiment: Induction of cell membrane damage in Klebsiella pneumoniae ATCC 13883 assessed as corrugation, blebbing, breakage, and fragmentation at MIC measured after 1 hr incubation by Scanning electron microscopy; format: subcellular
Streptococcus pneumoniae = experiment: Antimicrobial activity against Streptococcus pneumoniae ATCC 49619 assessed as growth inhibition measured after 8 hrs incubation by standard broth dilution assay; format: functional
Cell membrane [18] = experiment: Induction of cell membrane damage in methicillin-resistant Staphylococcus aureus ATCC 43300 assessed as increase in green fluorescence at MIC measured after 1 hr incubation by SYTO9 confocal microscopy; format: subcellular
[19] = Toxicity in mouse assessed as intramuscular injury at 40 mg/kg, sc by H and E staining based assay; format: organism-based; conditions: in vivo
Klebsiella pneumoniae [20] = experiment: Antimicrobial activity against Klebsiella pneumoniae ATCC 13883 assessed as growth inhibition measured after 8 hrs incubation by standard broth dilution assay; format: functional
[21] = Toxicity in mouse skin assessed as abscesses and visual lesions at 40 mg/kg, sc by histological analysis; format: organism-based; conditions: in vivo
Staphylococcus aureus [22] = experiment: In vivo antibacterial activity against methicillin-resistant Staphylococcus aureus ATCC 43300 infected locally in full thickness skin wound mouse model assessed as clean and less exudate at 1 mg/kg treated with absorbable gelatin sponge measured on early healing stage; format: functional, organism-based; conditions: route id
Cell membrane [23] = experiment: Induction of cell membrane damage in methicillin-resistant Staphylococcus aureus ATCC 43300 assessed as increase in red fluorescence at MIC measured after 1 hr incubation by PI based assay; format: subcellular
Cell membrane [24] = experiment: Induction of cell membrane damage in methicillin-resistant Staphylococcus aureus ATCC 43300 assessed as corrugation, blebbing, breakage, and fragmentation at MIC measured after 1 hr incubation by Scanning electron microscopy; format: subcellular
Cell membrane [25] = experiment: Induction of cell membrane damage in Klebsiella pneumoniae ATCC 13883 assessed as increase in green fluorescence at MIC measured after 1 hr incubation by SYTO9 confocal microscopy; format: subcellular

CC(=O)N[C@@H](CC(C)C)C(=O)N[C@@H](CCCCN)C(=O)N[C@@H](CCCNC(=N)N)C(=O)N[C@H](C(=O)N[C@@H](Cc1c[nH]c2ccccc12)C(=O)N[C@@H](CCCCN)C(=O)N[C@@H](CCCNC(=N)N)C(=O)N[C@H](C(=O)N[C@@H](Cc1ccccc1)C(=O)N[C@@H](CCCCN)C(=O)N[C@@H](CC(C)C)C(=O)N[C@@H](CC(C)C)C(=O)N[C@@H](CCCCN)C(=O)N[C@@H](CCCNC(=N)N)C(=O)N[C@@H](Cc1ccc(O)cc1)C(=O)N[C@@H](Cc1c[nH]c2ccccc12)C(=O)N[C@@H](CCCNC(=N)N)C(=O)N[C@@H](CCC(N)=O)C(=O)N[C@@H](CC(C)C)C(=O)N[C@@H](CCCCN)C(=O)N[C@@H](CCCCN)C(=O)N1CCC[C@H]1C(=O)N[C@H](C(=O)N[C@@H](CCCNC(=N)N)C(N)=O)C(C)C)C(C)C)C(C)C (Ac-LKRVWKRVFKLLKRYWRQLKKPVR-NH2)
Activity (Staphylococcus aureus [1]): Active | Activity (Staphylococcus aureus [2]): Active | Activity (Staphylococcus aureus [3]): Active | Activity (Cell membrane [4]): Active | MIC (Staphylococcus aureus [5]): 9.7 µg/mL (≈ 2.97 µM) | Activity (Cell membrane [6]): Active | Activity (Staphylococcus aureus [7]): Active | Activity (Cell membrane [8]): Active | Activity [9]: Toxic | Activity (Klebsiella pneumoniae [10]): Active | Activity (Klebsiella pneumoniae [11]): Active | Activity (Cell membrane [12]): Active | Activity (Cell membrane [13]): Active | Activity (Staphylococcus aureus [14]): 77.25% | Activity (Klebsiella pneumoniae [15]): 86.42% | MIC (Pseudomonas aeruginosa): 4.9 µg/mL (≈ 1.5 µM) | Activity (Staphylococcus aureus [16]): Active | Activity (Cell membrane [17]): inactive | MIC (Streptococcus pneumoniae): 4.7 µg/mL (≈ 1.44 µM) | Activity (Cell membrane [18]): Active | Activity [19]: Toxic | MIC (Klebsiella pneumoniae [20]): 38 µg/mL (≈ 11.6 µM) | Activity [21]: Toxic | Activity (Staphylococcus aureus [22]): Active; Model Group Showed Yellowish Compared With The Wounds Treated With Compound | Activity (Cell membrane [23]): Active | Activity (Cell membrane [24]): inactive | Activity (Cell membrane [25]): Active
